Patent US10555926B2, “Use of cabazitaxel in the treatment of prostate cancer” (Erasmus University Medical Center Rotterdam, priority 2015, dated 2020)
Where two headings read alike, the source gives them in different places.

What was measured:
[1] = tested on: mCRPC patients; conditions: cited from earlier work
[2] = tested on: CTCs of mCRPC patients; experiment: CTC response to cabazitaxel after two cycles (CABARESC side-study); type: in vivo, human; conditions: for CTC response: No (number of patients): 25 mg/m^2; for CTC response: Yes (number of patients): decrease from ≥10 to <5 CTCs/7.5 mL
Description: Blood was drawn by venipuncture before start of the first and the third cycle of cabazitaxel. Enumeration of CTCs was carried out as described in detail before (Sieuwerts et al., 2009. Breast Cancer Res Treat 118:455-68; Sieuwerts et al., 2011. Clin Cancer Res 17:3600-18). Briefly, CTCs were enumerated from 7.5 mL of blood drawn into a CellSave Preservative tube (Janssen Diagnostics). Blood samples were processed within 96 hours using the Epithelial Cell Kit on the CellSearch System (both Janssen Diagnostics). In this system, epithelial cells are immunomagnetically enriched from whole blood using anti-EpCAM antibodies loaded with ferrofluid nanoparticles. Enriched cells are stained with the nuclear dye 4′,6-diamidino-2-phenylindole (DAPI), anti-cytokeratin 8/18/19 labeled with phycoerythrin (PE), and anti-CD45 labeled with allophycocyanin (APC), followed by scanning using the CellTracks Analyzer (Janssen Diagnostics). All cells ≥4 μm, with round-to-oval morphology, positive for cytokeratin and DAPI, with at least 50% overlap in the DAPI and cytokeratin signal, and negative for CD45 were considered CTCs. All samples were analyzed by two independent, trained reviewers.
From 25 patients a secondary CTC sample was available; in three patients the second draw was missed and one patient died after the second cycle because of a non-disease related event. Of these 25 patients, 15 were AR-V7-positive and 10 were AR-V7-negative. […] The CTC-RRs in both AR-V7-positive and AR-V7-negative patient groups were 20% (Table 4).

[3] = tested on: mCRPC patients; experiment: PSA response to cabazitaxel (after 12 weeks and best response at end of treatment); type: in vivo, human; conditions: for Best PSA response: No (number of patients) / Best PSA response: ≥50% (number of patients) / Best PSA response: ≥30% (number of patients): end of treatment; for Best PSA response: ≥30% (number of patients) / PSA response after 12 weeks: ≥30% (number of patients): includes patients with ≥50% PSA response
Text: Sequential PSA levels during cabazitaxel for evaluation of PSA response after 12 weeks and maximal PSA response at the end of treatment were available from […]. Five (17%) and three patients (10%) achieved a ≥30% and ≥50% PSA response, respectively, after 12 weeks of treatment. At the end of treatment, the best PSA response was ≥30% in seven patients (24%) and ≥50% in three patients (10%). The differences between 30% and 50% PSA-RR after 12 weeks and at the end of treatment between patients with and without AR-V7 in CTCs were not statistically significant (Table 4, FIG. 2). Prior abiraterone acetate treatment had no influence on CTC-RR and PSA-RR during cabazitaxel treatment.

[4] = tested on: mCRPC patients; experiment: Overall survival under cabazitaxel treatment
Description: Primary endpoint of this study was the CTC response rate (RR) to cabazitaxel, defined as a decrease from ≥10 CTC to <5/7.5 ml of blood after two treatment cycles.
Applied statistical tests were the X^2 test for differences between categorical variables, the Student's t test for normally distributed and the Mann-Whitney U test for other continuous variables. Correlations were tested by Pearson or the non-parametric Spearman's test, depending on the distribution. Survival was visualized using Kaplan Meier plots and differences were calculated through Log-rank testing. All statistical tests were two-sided. A P-value <0.05 was considered statistically significant.

[5] = tested on: castration resistant prostate cancer (CRPC) patients; conditions: in combination with prednisone; first-line chemotherapy; cited from earlier work
[6] = patients with AR-V7 transcripts in their CTCs
[7] = all patients, after 12 weeks of treatment
[8] = all patients, at the end of treatment

## CC(=O)O[C@H]1CC[C@@]2(C)C(=CC[C@@H]3[C@@H]2CC[C@]2(C)C(c4cccnc4)=CC[C@@H]32)C1 [abiraterone acetate]
[1]; [6]
  patients who responded: none
[1]; patients without AR-V7
  patients who responded: 68%

## CO[C@H]1C(=O)[C@]2(C)[C@@H](OC)C[C@H]3OC[C@@]3(OC(C)=O)[C@H]2[C@H](OC(=O)c2ccccc2)[C@]2(O)C[C@H](OC(=O)[C@H](O)[C@@H](NC(=O)OC(C)(C)C)c3ccccc3)C(C)=C1C2(C)C [cabazitaxel, 4a-acetoxy-2a-benzoyloxy-5,20-epoxy-1-hydroxy-7,10-dimethoxy-9-oxo-1 1-taxen-13a-yl (2R,3S)-3-fert-butoxycarbonylamino-2-hydroxy-3-phenylpropionate]
[2]; AR-V7-negative patient group
  CTC-RR: 20%
[2]; AR-V7-positive patient group
  CTC-RR: 20%
[2]; AR-V7 in CTCs at baseline: No
  CTC response: No (number of patients): 8
  CTC response: Yes (number of patients): 2
[2]; AR-V7 in CTCs at baseline: Yes
  CTC response: No (number of patients): 12
  CTC response: Yes (number of patients): 3
[2]; all 25 patients with a second CTC sample
  CTC response to cabazitaxel (share of patients): 20%
[3]; AR-V7 in CTCs at baseline: No
  PSA response after 12 weeks: No (number of patients): 9
  PSA response after 12 weeks: ≥50% (number of patients): 2
  Best PSA response: No (number of patients): 7
  Best PSA response: ≥50% (number of patients): 2
  Best PSA response: ≥30% (number of patients): 4
  PSA response after 12 weeks: ≥30% (number of patients): 3
[3]; AR-V7 in CTCs at baseline: Yes
  PSA response after 12 weeks: No (number of patients): 12
  PSA response after 12 weeks: ≥50% (number of patients): 1
  Best PSA response: No (number of patients): 12
  Best PSA response: ≥50% (number of patients): 1
  Best PSA response: ≥30% (number of patients): 3
  PSA response after 12 weeks: ≥30% (number of patients): 2
[3]; [7]
  ≥30% PSA response (share of patients): 17%
  ≥50% PSA response (share of patients): 10%
[3]; [8]
  best PSA response ≥30% (share of patients): 24%
  best PSA response ≥50% (share of patients): 10%
[4]; all patients (28 available)
  Median OS: 9.5 (95% CI 5.8-13.2) months
[4]; patients with AR-V7 in CTCs at baseline
  Median OS: 9.5 (95% CI 4.5-14.5) months
[4]; patients without AR-V7 in CTCs at baseline
  Median OS: 7.7 (95% CI 3.3-12.1) months

## CC(=O)O[C@@]12CO[C@@H]1C[C@H](O)[C@@]1(C)C(=O)[C@H](O)C3=C(C)[C@@H](OC(=O)[C@H](O)[C@@H](NC(=O)OC(C)(C)C)c4ccccc4)C[C@@](O)([C@@H](OC(=O)c4ccccc4)[C@H]21)C3(C)C [docetaxel]
[5]
  survival benefit: 2.4 months

## CNC(=O)c1ccc(N2C(=S)N(c3ccc(C#N)c(C(F)(F)F)c3)C(=O)C2(C)C)cc1F [enzalutamide]
[1]; [6]
  patients who responded: none
[1]; patients without AR-V7
  patients who responded: 53%
